Assay results taken from ChEMBL document CHEMBL1158108, “C35 terpenoids from the bark of Calocedrus macrolepis var. formosana with activity against human cancer cell lines” (J Nat Prod, 2006).

System: KB
Assay: Cytotoxicity against human KB cells after 72 hrs
Format: functional, cell-based

| SMILES | IC50 |
| --- | --- |
| COc1cc([C@@H]2c3cc4c(cc3[C@@H](O[C@@H]3O[C@@H]5CO[C@@H](C)O[C@H]5[C@H](O)[C@H]3O)[C@H]3COC(=O)[C@H]23)OCO4)cc(OC)c1O [ETOPOSIDE] | 2 µM |
| CC(C)c1cc2c(cc1O)[C@@]1(C)CCCC(C)(C)[C@@H]1C[C@H]2CC1=C[C@@H]2[C@@H](CC1)[C@](C)(O)CC[C@H]2C(C)C [FERRUGICADINOL] | 14.1 µM |
| C=C1CC[C@@H]([C@H]2C[C@H]3C(C)(C)CCC[C@]3(C)c3cc(O)c(C(C)C)cc32)[C@]2(C)CC[C@@H](C(C)(C)O)C[C@@H]12 [FERRUGIEUDESMOL] | 11.4 µM |
